Assay results published in ChEMBL document CHEMBL3507680, “University of Dundee, Gates Library screen for HepG2 cell viability”.

Assay: Human HepG2 cell viability assay in 384 well format
Format: toxicity, cell-based
Set-up: dose 125 nL, time 70.5 hour; concentration not given beside the values
Details: HepG2 cells, read-out: Inhibition

In order of rising cytotoxicity at 70.5 h:
1. COc1ccc2c(c1)C(C(=O)NCCCN1CCN(C)CC1)CC(=O)N2 (stereo not given)  -25%
2. CC(O)CN1CCc2onc(-c3ccccc3F)c2C1 (stereo not given)  -22.3%
3. CSc1ncccc1C(=O)N(C)C(C)Cc1ccccn1 (stereo not given)  -18.1%
4. O=C(NCCc1cccnc1)c1ccc2nccn2c1  -16.8%
5. CSc1ccc(C(=O)C2CCCN(C(=O)CCn3cncn3)C2)cc1 (stereo not given)  -16.6%
6. COc1cc(NC2CCS(=O)(=O)CC2)ncn1  -16.4%
7. COCCC1(C(=O)O)CCCN(C(=O)c2cnc3c(c2)CCCC3)C1 (stereo not given)  -14.8%
8. CCc1ncc2c(n1)CN(C(=O)Cc1cc(OC)cc(OC)c1)C2  -14%
9. CCCc1cncnc1N1CCC(NCc2ccncc2)CC1  -13.1%
10. Cc1noc(CN(C)c2nc(-c3ccco3)nc3c2CCN(C)CC3)n1  -12.8%
11. CC[C@@H](CO)NC(=O)c1coc(COc2ccc3sc(C)nc3c2)n1  -12.1%
12. CCc1cc(NC(C)(C)C)nc(N2CCOCC2)n1  -12%
13. CC1CCN(CC(=O)N(Cc2ccccc2)Cc2nccs2)C1=O (stereo not given)  -11.6%
14. Cc1ccnc(NCc2cn3c(C)csc3n2)n1  -11.5%
15. Cc1nccnc1N1CCC(Cc2ccccc2Cl)(C(=O)O)CC1  -11.4%
16. CSc1nccc(NCC2CNCCOC2)n1 (stereo not given)  -11.3%
17. Cc1nc2c(c(N[C@H](C(N)=O)C(C)C)n1)Cc1ccccc1OC2  -11.2%
18. C[C@@H]1CN(C(=O)C2CCS(=O)(=O)CC2)CC[C@@]1(O)C1CCOCC1  -11%
19. Cc1noc(CC2CCN(Cc3ccc(CCC(C)(C)O)cc3)CC2)n1  -10.5%
20. Cc1ccc(C(=O)N2CCCC3(C2)C(=O)N(C)c2ccccc23)c(=O)[nH]1 (stereo not given)  -10.2%
21. Cn1c(-c2ccc(F)cc2)cn2cc(C(=O)N3CC[C@@H](O)C3)nc2c1=O  -10.1%
22. COc1ccc(Cl)cc1-n1c(COC(C)C)n[nH]c1=O  -9.9%
23. CN(C)C(=O)CN1C[C@@H]2CC[C@H](C1)N(Cc1c(Cl)cncc1Cl)C2  -9.62%
24. Cc1cc(C(=O)N2CCC(c3nnc(Cn4ccnc4)n3C)CC2)cs1  -9.51%
25. O=C(c1ccc2ncsc2c1)N1CCC(C(=O)O)(n2cccn2)CC1  -8.58%
26. CCc1cccc(OC2CN(C(=O)[C@@H](N)[C@@H](C)O)C2)c1  -8.46%
27. COCCN1CCc2onc(C(c3ccccc3)c3ccccc3)c2C1  -8.42%
28. CN1C(=O)C2(CCN(c3ncccc3C(=O)O)CC2)c2ccccc21  -8.18%
29. CCc1nnc(N2CCN(c3ccccc3)C(=O)C2)o1  -7.77%
30. NC(=O)C1CCN(CC(=O)N(Cc2ccccc2)Cc2nccs2)CC1  -7.45%
31. CCn1nc(C)c(CN(CCOC)Cc2ccccn2)c1C  -6.94%
32. Cc1ccc(C(=O)N2CCC3(CC2)C(=O)NCCN3C)cc1O  -6.34%
33. CCc1nc(C)c(CC(=O)N2CCC3(CC2)OCCCC3OC)c(=O)[nH]1 (stereo not given)  -6.31%
34. O=C(NCCSc1ccccc1)[C@H]1CNC[C@H](C(=O)N2CCOCC2)C1  -6.2%
35. Cc1ccnc(CC(C)N(C)Cc2ccc3c(c2)CCO3)c1 (stereo not given)  -5.48%
36. CSCCC(=O)N1CCC(c2nccn2Cc2cscn2)CC1  -5.4%
37. COc1nccnc1N1CCC2(CCCN(C(C)C)C2=O)C1 (stereo not given)  -4.89%
38. COc1ccc(-c2ccncc2)cc1CNC1CCCC1  -4.27%
39. CCN1CCN(C2(C(=O)NC3CCCC3)Cc3ccccc3C2)CC1  -3.96%
40. COc1c(F)cc(CN2CCC3(CC2)C(C(=O)O)CC(=O)N3C)cc1Cl (stereo not given)  -3.91%
41. COc1cccc2c1OCCCN(c1nc3c(c(=O)[nH]1)CCNCC3)C2  -3.8%
42. Cc1ccc2oc(=O)n(CCC(=O)N3CCN(C)C(=O)C3)c2c1  -3.44%
43. CC(C)N1CCOC(CC(=O)N2CCCN(c3ccc(F)cc3)CC2)C1 (stereo not given)  -3.4%
44. CC(C)N1CCC(CC(=O)N2CCC(C(O)c3nccn3C)CC2)CC1 (stereo not given)  -3.4%
45. CCOc1ccc(-c2ccnc(C3CC3)n2)cc1C(=O)O  -3.39%
46. CC(C)c1cc(C(=O)N2CCN(CC3CC3)[C@@H]3CS(=O)(=O)C[C@@H]32)no1  -3.21%
47. Cc1ccnc(N2CCN(Cc3ccccc3)CC(O)C2)c1 (stereo not given)  -3.12%
48. CC(=O)c1ccc(N2CCCC(CO)(Cc3ccccc3C)C2)nc1 (stereo not given)  -3.1%
49. O=C1CC(NS(=O)(=O)N2CCOCC2)CN1Cc1ccc(F)cc1 (stereo not given)  -2.75%
50. CS(=O)(=O)CCc1ncnn1-c1ccc(F)c(Cl)c1  -2.51%
51. Cc1nc2c(c(N3CCC(CCn4cccn4)CC3)n1)CCNCC2  -2.46%
52. CC(C)c1ccc(CN2CCCC3(CC2)CN(C)C(=O)O3)cc1 (stereo not given)  -1.93%
53. Cn1ccnc1CN1CCCC(CCc2ccc(F)c(F)c2)C1 (stereo not given)  -1.61%
54. COc1cc(N2CCC(c3nccn3CCCN(C)C)CC2)nc(N)n1  -1.61%
55. CCc1ncc(C(=O)NCCn2c(C)cc(C)nc2=O)cn1  -1.56%
56. CNC(=O)C1(N(C)CCc2ccccc2)Cc2ccccc2C1  -1.19%
57. O=C(NCC1=CCCCC1)C(c1cccnc1)N1CCOCC1 (stereo not given)  -1.14%
58. CCc1cnc(N)nc1NC(C)c1ccc(C)c(C)c1 (stereo not given)  -0.902%
59. CCC(CO)N(Cc1ccco1)C(=O)c1cccc(C)c1O (stereo not given)  -0.632%
60. CCNC(=O)C1CCN(c2cc(-c3ccccc3)nc3ccnn23)C1 (stereo not given)  -0.497%
61. Cc1nn2c(N3CCS(=O)(=O)CC3)cc(-c3ccccc3)nc2c1C  1.53%
62. CC(C)=CCN1C[C@H]2CC[C@@H]1CN(C(=O)c1ccc3c(c1)OCO3)C2  1.98%
63. Cc1nccn1CCC(=O)N1CCC2(CCC(=O)N(CC3CC3)C2)CC1  2.21%
64. Cc1ccc(CN2CCNC(=O)C2CC(=O)N2CCSCC2)o1 (stereo not given)  2.5%
65. NCc1cn(CC2CCCN(C(=O)NCc3ccc(Cl)cc3)C2)nn1 (stereo not given)  2.71%
66. CCOCCn1nc(C2CCNCC2)n(Cc2ccccc2)c1=O  3.02%
67. CCN(Cc1noc(C)n1)C(=O)CCc1scnc1C  3.89%
68. NCC1Cc2cccc(-c3nccc(N4CCC(O)CC4)n3)c2O1 (stereo not given)  7.11%
69. O=C(c1cc(Cn2ccc3ccccc32)[nH]n1)N1CCCCC1CO (stereo not given)  10.4%
70. CNc1nc(C(=O)NCc2cccnc2N(C)C2CCCCC2)cs1  12.4%
71. OC1CCN(C2CCN(Cc3cnc(-c4cccs4)nc3)CC2)CC1  12.5%
72. CCC(C)Nc1ccc(-c2nc(-c3cccc(OC)c3OC)no2)cn1 (stereo not given)  13.1%
73. CC(C)c1noc(CCNC(=O)C2COc3ccccc3C2)n1 (stereo not given)  13.6%
74. Cc1cccnc1CN1CCN(C(=O)c2cnn(C(C)C)c2)CC1  15.6%
75. CN(C)CCCn1ccc(-c2cccc(-c3ccccn3)c2)n1  15.8%
76. Cc1nc(C2CCCNC2)cc(N2CCc3nc(N)sc3C2)n1 (stereo not given)  17.4%
77. CC(C)N1CCCC(C(=O)NCCCc2cnn(C)c2)C1 (stereo not given)  17.4%
78. Nc1cc(C(=O)NCC2CCN(Cc3ccncc3F)C2)ccn1 (stereo not given)  20.9%
79. CCCN1CCN(Cc2cccc(OC)c2)[C@H]2CS(=O)(=O)C[C@H]21  25.9%
80. O=C1CCCc2occ(C(=O)N3CCCC(O)(CO)C3)c21 (stereo not given)  31%
